Experimental data as given in US8168232B2, “Formulations and methods of using nitric oxide mimetics in cancer treatment” (priority 2000, dated 2012).

Tests used:
[1] = system: metalloproteinase (gelatinase); assay: Zymography of metalloproteinase (gelatinase) secretion by breast cancer cells; format: cell-based, human; details: 10^−11 M GTN, 10^−12 M SNP
Protocol: The cells were cultured using a serum-free medium (EX-CELL 300). Following incubation, the medium was extracted and centrifuged at 5,000 RPM for 5 minutes. The supernatant was subsequently collected and stored at −80° C. until further use. SDS-polyacrylamide gels were prepared in accordance with well-known procedures. For the analysis of metalloproteinase secretion, the gel contained 0.1% w/v gelatin, and for the analysis of plasminogen activator secretion, the gel was supplemented with 0.1% w/v casein as well as plasminogen (50 μg/mL). The serum-free conditioned medium was then combined with a nonreducing sample loading buffer (0.5 M Tris, 10% SDS, 1% Bromophenol Blue in 2 mL glycerol) in a ratio of 4:1 and was not boiled. Following electrophoresis, the gels underwent two 15 minute washes with 2.5% Triton X-100. This step removed the SDS. After the washes with H2O, the gels were incubated overnight at 37° C. in a solution containing Tris-HCl (pH 7.0) and CaCl2 (5 mM). The gels were stained with 0.4% Coomassie Brilliant Blue R-250 in 40% methanol/10% glacial acetic acid/50% distilled water for approximately 1 hour, and then destained for about 2 hours in 30% methanol/10% glacial acetic acid/60% distilled water. […]

[2] = system: HTR-8/SVneo invasive trophoblast cells; assay: In vitro Matrigel invasion assay, HTR-8/SVneo; format: cell-based; details: Homo sapiens, read-out: inhibition of invasiveness of hypoxic cells
Protocol: The chambers consist of cell culture inserts, 6.5 mm in diameter and with a 8 μm pore size membrane. Each membrane was coated with 100 μL of a 1 mg/mL solution of Matrigel diluted in cold serum-free culture medium (EX-CELL 300), and allowed to dry in a laminar flow cabinet for approximately 12 hours. The Matrigel was then rehydrated by incubating it with 100 μL of serum-free medium for approximately 1 hour. After rehydration, cell suspensions containing 5.0×10^4 or 1.0×10^5 cells in 100 μL of medium, containing both serum and the nitric oxide treatments, were added to each well. Culture medium containing serum and the respective nitric oxide treatment were then added to each insert. The cells were incubated for 24 hours under either hypoxic (1% O2) or control (20% O2) conditions. Following incubation, the non-invading cells were removed from the upper surface of the membrane by wiping with a cotton swab. The cells on the lower surface of the membrane were fixed for 10 minutes with Carnoy's fixative (25% acetic acid, 75% methanol), and then stained for approximately 3 hours with a 1% toluidine blue, 1% sodium borate solution. […] Invading cells were then viewed under the microscope at 40× magnification and counted. The invasion index for each treatment was calculated by dividing the number of invading cells by the number of cells which invaded under standard conditions. […]

[3] = system: MDA-MB-231 breast cancer cells; assay: Colony formation assay for doxorubicin resistance, MDA-MB-231 monolayer; format: cell-based, human
Protocol: The resistance of MDA-MB-231 breast cancer cells to doxorubicin was determined following culture in 20% or 1% oxygen by counting the number of colonies formed. MDA-MB-231 cells were incubated in 1% O2 or 20% O2 for 24 hours. […] The cells were washed and then plated onto 35 mm plates at different dilutions. The cells were incubated for an additional 1-2 weeks in order to allow cell colonies to grow. At the end of the incubation period, the cells were fixed with Carnoy's fixative, stained with Crystal violet, rinsed and allowed to air dry. Colonies were counted visually. The surviving cells under each condition was determined by counting the number of colonies and was expressed as a fraction of the number of colonies that survived without doxorubicin exposure.
Using human MDA-MB-231 breast carcinoma cells in clonogenic assays, survival was determined following doxorubicin exposure and NO mimetic administration to both monolayer and spheroid cultures. […] However, these NO mimetics effectively attenuated the resistance to 200 μM doxorubicin associated with 3D culture by 90% and 30% respectively.

O=[N+]([O-])OCC(CO[N+](=O)[O-])O[N+](=O)[O-] [GTN, glyceryl trinitrate]
gelatinases secreted vs untreated hypoxic cells [1]: decrease in gelatinases secreted | inhibition at 0.1 µM [2]: 56.2% | doxorubicin survival rates vs untreated hypoxic cells ([3]; hypoxic cells, 10^−6 M and 10^−10 M GTN): lower doxorubicin survival rates | attenuation of hypoxia-induced resistance to doxorubicin ([3]; monolayer cells in 1% O2, GTN 1 μM): 50%
